Results published in patent US8829007B2 (priority 2009, dated 2014).
Counter-ions that a name gives are not always drawn. Like-named read-outs stand apart in the source and are kept apart here.

How the values were obtained:
[1] = tested on: A/PR/8/34 influenza virus; assay: microbe, parasite or virus in culture; format: cell-based
[2] = tested on: influenza A virus (A/PR/8/34); assay: microbe, parasite or virus in culture; format: cell-based
[3] = Influenza A virus, PR/8, MDCK, MDCK cells infected with A/PR/8/34, bDNA viral RNA, read-out: EC50 (mean all)
[4] = Influenza A virus, PR/8, MDCK, MDCK cells infected with A/PR/8/34, cell protection (CPE), read-out: IC50 (mean all)
[5] = Influenza A virus, PR/8, MDCK, MDCK cells infected with A/PR/8/34, replication of influenza virus (viral RNA, bDNA), class symbols, read-out: EC50 (mean all)
[6] = Influenza A virus, PR/8, MDCK, MDCK cells infected with A/PR/8/34, survival of infected cells, class symbols, read-out: IC50 (mean all)
[7] = Influenza A virus, PR/8, MDCK, mean all, A/PR/8/34 influenza virus in MDCK cells, bDNA assay, read-out: EC50
[8] = Influenza A virus, PR/8, MDCK, mean all, A/PR/8/34 infected MDCK cells, CPE assay, read-out: IC50
[9] = mean all, bDNA viral RNA in MDCK cells infected with A/PR/8/34, read-out: EC50
[10] = mean all, MDCK cells infected with A/PR/8/34, cell protection (CPE), read-out: IC50
[11] = Influenza A virus, PR/8, MDCK, bDNA assay, A/PR/8/34 influenza virus replication in MDCK cells, class symbols, read-out: EC50 (mean all)
[12] = Influenza A virus, PR/8, MDCK, CPE assay, A/PR/8/34 infected MDCK cells, class symbols, read-out: IC50 (mean all)

O=C(c1cc(F)ccc1F)N1CCC[C@H](CNc2nc(-c3c[nH]c4ncc(Cl)cc34)ncc2F)C1 [Compound 151]
EC50 [1, 3]: < 5 µM
IC50 [2, 4]: < 5 µM

NC(=O)N1CC(Nc2nc(-c3c[nH]c4ncc(Cl)cc34)ncc2F)C1 [Compound 512]
EC50 [1, 5]: 5 to 10 µM
IC50 [2, 6]: > 20 µM

CCNC(=O)[C@]1(O)CCC[C@H](Nc2nc(-c3c[nH]c4ncc(Cl)cc34)ncc2F)C1 [Compound 779, (1S,3S)-3-[[2-(5-chloro-1H-pyrrolo[2,3-b]pyridin-3-yl)-5-fluoro-pyrimidin-4-yl]amino]-N-ethyl-1-hydroxy-cyclohexanecarboxamide]
EC50 ([1]; Influenza A virus, PR/8, mean all, A/PR/8/34 influenza virus replication, bDNA, read-out: EC50): < 5 µM
IC50 ([2]; Influenza A virus, PR/8, MDCK, mean all, A/PR/8/34 infected MDCK cells, cell protection (CPE), read-out: IC50): < 5 µM

CC(C)S(=O)(=O)N1CCC[C@H](Nc2nc(-c3c[nH]c4ncc(Cl)cc34)ncc2F)C1 [Compound 394, (S)-2-(5-chloro-1H-pyrrolo[2,3-b]pyridin-3-yl)-5-fluoro-N-(1-(isopropylsulfonyl)-piperidin-3-yl)pyrimidin-4-amine]
EC50 [1, 7]: < 5 µM
IC50 [2, 8]: < 5 µM

O=C(O)[C@H]1CCCC[C@@H]1Nc1nc(-c2c[nH]c3ncc(Cl)cc23)ncc1F [Compound 553, (1S,2S)-2-[[2-(5-chloro-1H-pyrrolo[5,4-b]pyridin-3-yl)-5-fluoro-pyrimidin-4-yl]amino]cyclohexane-1-carboxylic acid]
EC50 [1, 5]: < 5 µM
IC50 [2, 6]: < 5 µM

O=C(CC(F)(F)F)N1CCC[C@@H](CNc2nc(-c3c[nH]c4ncc(Cl)cc34)ncc2F)C1 [Compound 44, (S)-1-(3-((2-(5-chloro-1H-pyrrolo[2,3-b]pyridin-3-yl)-5-fluoropyrimidin-4-ylamino)methyl)piperidin-1-yl)-3,3,3-trifluoropropan-1-one]
EC50 [1, 3]: < 5 µM
IC50 [2, 4]: < 5 µM

CCNC(=O)OC1CCCC(Nc2nc(-c3c[nH]c4ncc(Cl)cc34)ncc2F)C1 (single isomer, unassigned) [Compound 609]
EC50 ([1]; bDNA assay, A/PR/8/34 influenza virus replication in MDCK cells, class symbols, read-out: EC50 (mean all)): < 5 µM
IC50 ([2]; CPE assay, A/PR/8/34 infected MDCK cells, class symbols, read-out: IC50 (mean all)): < 5 µM

CCC1(O)CCCC(Nc2nc(-c3c[nH]c4ncc(Cl)cc34)ncc2F)C1 (single isomer, unassigned) [Compound 709]
EC50 [1, 9]: < 5 µM
IC50 [2, 10]: < 5 µM

OC1CCCC(Nc2nc(-c3c[nH]c4ncc(Cl)cc34)ncc2F)C1 [Compound 524, (3S)-3-((2-(5-chloro-1H-pyrrolo[2,3-b]pyridin-3-yl)-5-fluoropyrimidin-4-ylamino)cyclohexanol]
EC50 [1, 5]: < 5 µM
IC50 [2, 6]: < 5 µM

NC(=O)N1CCOCC1CNc1nc(-c2c[nH]c3ncc(Cl)cc23)ncc1F (centres unmarked) [Compound 534, 3-((2-(5-chloro-1H-pyrrolo[2,3-b]pyridin-3-yl)-5-fluoropyrimidin-4-ylamino)methyl)morpholine-4-carboxamide]
EC50 [1, 5]: < 5 µM
IC50 [2, 6]: 5 to 20 µM

CC(C)(C(=O)NC1CC1)N1CCC[C@H](Nc2nc(-c3c[nH]c4ncc(Cl)cc34)ncc2F)C1 [Compound 602]
EC50 [1, 11]: < 5 µM
IC50 [2, 12]: < 5 µM

Nc1nc(-c2c[nH]c3ncc(Cl)cc23)nc(NC2CCCCC2C(=O)O)c1F (centres unmarked) [Compound 674]
EC50 [1, 9]: < 5 µM
IC50 [2, 10]: < 5 µM

O=C(c1cnccn1)N1CCC[C@H](CNc2nc(-c3c[nH]c4ncc(Cl)cc34)ncc2F)C1 [Compound 101, (R)-(3-((2-(5-chloro-1H-pyrrolo[2,3-b]pyridin-3-yl)-5-fluoropyrimidin-4-ylamino)methyl)piperidin-1-yl)(pyrazin-2-yl)methanone]
EC50 [1, 3]: < 5 µM
IC50 [2, 4]: < 5 µM

O=C(C1CCC1)N1CCOCC1CNc1nc(-c2c[nH]c3ncc(Cl)cc23)ncc1F (centres unmarked) [Compound 531, (3-((2-(5-chloro-1H-pyrrolo[2,3-b]pyridin-3-yl)-5-fluoropyrimidin-4-ylamino)methyl)morpholino)(cyclobutyl)methanone]
EC50 [1, 5]: < 5 µM
IC50 [2, 6]: 5 to 20 µM

CC(=O)N[C@H]1CCCC[C@@H]1Nc1nc(-c2c[nH]c3ncc(Cl)cc23)ncc1F [Compound 433, N-[(1s, 2S)-2-[[2-(5-chloro-1H-pyrrolo[2,3-b]pyridin-3-yl)-5-fluoro-pyrimidin-4-yl]amino]cyclohexyl]acetamide]
EC50 [1, 7]: < 5 µM
IC50 [2, 8]: < 5 µM

O=C(O)[C@H]1C2CCC(CC2)[C@@H]1Nc1nc(-c2c[nH]c3ncc(Cl)cc23)ncc1F [Compound 1184, (2S,3S)-3-((2-(5-chloro-1H-pyrrolo[2,3-b]pyridin-3-yl)-5-fluoropyrimidin-4-yl)amino)bicyclo[2.2.2]octane-2-carboxylic acid]
EC50 ([1]; Influenza A virus, PR/8, 30 h, HA(−) 30 hr, A/PR/8, bDNA, mean all, read-out: Cell Influenza HA(−) 30 hr A/PR/8 bDNA:bDNA EC50 uM(Mean (All))): < 5 µM
IC50 ([2]; Influenza A virus, PR/8, MDCK, MDCK cells, A/PR/8/34, ATP readout, mean all, read-out: Cell Flu, MDCK protection, ATP (All: IC50: uM)(Mean (All))): < 5 µM

CC(=O)N[C@H]1CCC[C@@H](Nc2nc(-c3c[nH]c4ncc(Cl)cc34)ncc2F)C1 (relative stereo) [Compound 452, N-[cis-3-[[2-(5-chloro-1H-pyrrolo[2,3-b]pyridin-3-yl)-5-fluoropyrimidin-4-yl]amino]cyclohexyl]acetamide]
EC50 [1, 7]: < 5 µM
IC50 [2, 8]: < 5 µM

O=C(CN1CCOCC1)NC1CCCC(Nc2nc(-c3c[nH]c4ncc(Cl)cc34)ncc2F)C1 (centres unmarked) [Compound 730]
EC50 [1, 9]: < 5 µM
IC50 [2, 10]: < 5 µM

CC[C@H](O)CN1CCCC(Nc2nc(-c3c[nH]c4ncc(Cl)cc34)ncc2F)C1 (some centres unmarked) [Compound 538]
EC50 [1, 5]: < 5 µM
IC50 [2, 6]: < 5 µM

CC[C@@]1(C(=O)O)CCCC[C@H]1Nc1nc(-c2c[nH]c3ncc(Cl)cc23)ncc1F (relative stereo) [Compound 586, trans-2-(2-(5-chloro-1H-pyrrolo[2,3-b]pyridin-3-yl)-5-fluoropyrimidin-4-ylamino)-1-ethylcyclohexanecarboxylic acid]
EC50 ([1]; […], replication of influenza virus (viral RNA, bDNA), class symbols, read-out: EC50 (mean all)): < 5 µM
IC50 ([2]; read-out: IC50 (mean all)): < 5 µM

O=C(N[C@@H]1CCC[C@H](Nc2nc(-c3c[nH]c4ncc(Cl)cc34)ncc2F)C1)C1CCCOC1 (stereo partly drawn) [Compound 633, N-[(1R,3S)-3-[[2-(5-chloro-1H-pyrrolo[2,3-b]pyridin-3-yl)-5-fluoro-pyrimidin-4-yl]amino]cyclohexyl]tetrahydropyran-3-carboxamide hydrochloride]
EC50 [1, 11]: < 5 µM
IC50 [2, 12]: < 5 µM

CC(C)(C)CC(=O)NC1CCCC(Nc2nc(-c3c[nH]c4ncc(Cl)cc34)ncc2F)C1 (centres unmarked) [Compound 728]
EC50 [1, 9]: < 5 µM
IC50 [2, 10]: < 5 µM

CC(C)OC(=O)[C@@H]1CCCC[C@H]1Nc1nc(-c2c[nH]c3ncc(Cl)cc23)ncc1F [Compound 568, (1R,2R)-isopropyl 2-(2-(5-chloro-1H-pyrrolo[2,3-b]pyridin-3-yl)-5-fluoropyrimidin-4-ylamino)cyclohexanecarboxylate]
EC50 [1, 5]: > 10 µM
IC50 [2, 6]: > 10 µM

CN(C)C(=O)N[C@H]1CCC[C@H](Nc2nc(-c3c[nH]c4ncc(Cl)cc34)ncc2F)C1 (relative stereo) [Compound 459, 3-[trans-3-[[2-(5-chloro-1H-pyrrolo[2,3-b]pyridin-3-yl)-5-fluoro-pyrimidin-4-yl]amino]cyclohexyl]-1,1-dimethyl-urea]
EC50 [1, 7]: < 5 µM
IC50 [2, 8]: < 5 µM

COC(=O)N1CCC[C@H](Nc2nc(-c3c[nH]c4ncc(Cl)cc34)ncc2F)C1 [Compound 440]
EC50 [1, 7]: < 5 µM
IC50 [2, 8]: < 5 µM

CCS(=O)(=O)N1CCCC[C@@H]1CNc1nc(-c2c[nH]c3ncc(Cl)cc23)ncc1F [Compound 382, (R)-2-(5-chloro-1H-pyrrolo[2,3-b]pyridin-3-yl)-5-fluoro-N-((1-(ethylsulfonyl)-piperidin-2-yl)methyl)pyrimidin-4-amine]
EC50 [1, 7]: < 5 µM
IC50 [2, 8]: < 5 µM

CC(C)COC(=O)N1CCC[C@@H](CNc2nc(-c3c[nH]c4ncc(Cl)cc34)ncc2F)C1 [Compound 28, (S)-isobutyl 3-((2-(5-chloro-1H-pyrrolo[2,3-b]pyridin-3-yl)-5-fluoropyrimidin-4-ylamino)methyl)piperidine-1-carboxylate]
EC50 [1, 3]: < 5 µM
IC50 [2, 4]: > 20 µM

O=C(CN1CCCCC1)NC1CCCC(Nc2nc(-c3c[nH]c4ncc(Cl)cc34)ncc2F)C1 (centres unmarked) [Compound 729]
EC50 [1, 9]: < 5 µM
IC50 [2, 10]: < 5 µM

C=CCC(=O)N1CCC[C@@H](CNc2nc(-c3c[nH]c4ncc(Cl)cc34)ncc2F)C1 [Compound 49, (S)-1-(3-((2-(5-chloro-1H-pyrrolo[2,3-b]pyridin-3-yl)-5-fluoropyrimidin-4-ylamino)methyl)piperidin-1-yl)but-3-en-1-one]
EC50 [1, 3]: < 5 µM
IC50 [2, 4]: < 5 µM

COCC(=O)N[C@@H]1CCC[C@H](Nc2nc(-c3c[nH]c4ncc(Cl)cc34)ncc2F)C1 [Compound 591, N-[(1R,3S)-3-[[2-(5-chloro-1H-pyrrolo[2,3-b]pyridin-3-yl)-5-fluoro-pyrimidin-4-yl]amino]cyclohexyl]-2-methoxy-acetamide]
EC50 [1, 5]: < 5 µM
IC50 [2, 6]: < 5 µM

CC1(C)CCC[C@H](Nc2nc(-c3c[nH]c4ncc(Cl)cc34)ncc2F)C(=O)N1 [Compound 504]
EC50 [1, 5]: < 5 µM
IC50 [2, 6]: 5 to 20 µM
